Experiments:
[1] = system: H. pylori G27; details: H. pylori G27, liquid media; cited from earlier work
[2] = cited from earlier work
[3] = biological target: T1, rat liver TrxR (Rattus norvegicus, UniProt O89049); test: TrxR inhibition assay; type: biochemical; details: purified rat liver TrxR, DTNB, ΔA412 after 10 minutes
T1 sequence (O89049 1-499): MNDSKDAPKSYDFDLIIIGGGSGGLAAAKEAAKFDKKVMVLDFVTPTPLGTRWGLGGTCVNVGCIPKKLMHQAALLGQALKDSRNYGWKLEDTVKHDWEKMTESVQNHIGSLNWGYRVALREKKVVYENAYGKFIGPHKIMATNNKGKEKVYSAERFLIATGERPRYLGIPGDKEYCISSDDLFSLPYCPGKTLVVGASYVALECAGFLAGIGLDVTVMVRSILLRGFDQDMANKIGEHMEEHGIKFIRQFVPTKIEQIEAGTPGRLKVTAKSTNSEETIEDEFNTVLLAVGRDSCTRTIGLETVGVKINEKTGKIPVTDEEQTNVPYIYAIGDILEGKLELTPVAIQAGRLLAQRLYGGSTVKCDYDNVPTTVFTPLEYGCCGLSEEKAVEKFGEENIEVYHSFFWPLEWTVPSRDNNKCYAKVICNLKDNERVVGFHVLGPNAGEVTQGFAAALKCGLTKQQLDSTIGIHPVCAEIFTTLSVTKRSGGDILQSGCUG

[4] = system: free thiols in H. pylori; test: Free thiol depletion assay; type: cell-based, Helicobacter pylori; details: H. pylori treated with 5.0 μM for four hours

| SMILES | previously reported MIC [1] | logP [2] | half maximal inhibitory concentration (IC50) of TrxR [3] | free thiol concentration in comparison to untreated samples [4] |
| --- | --- | --- | --- | --- |
| CC(=O)OC[C@H]1O[C@@H]([S-])[C@H](OC(C)=O)[C@@H](OC(C)=O)[C@@H]1OC(C)=O.CCP(CC)CC.[Au+] [Compound 1, auranofin] | 1.2 µM | 0.56 |  |  |
| CC(=O)NC1C([S][Au][PH](C)(C)C)OC(CO)C(O)C1O (centres unmarked) [Compound 6] |  | −2.03 | inhibited TrxR most effectively |  |
| CC1(C)S[C@@H]2[C@H](NC(=O)[C@H](N)c3ccc(O)cc3)C(=O)N2[C@H]1C(=O)O [amoxicillin] |  |  |  | no differences in free thiol concentrations |

Reference: publication PMC7123778 (ACS infectious diseases, 2019)
